# From ChEMBL document CHEMBL1201862, “PubChem BioAssay data set” (2004)
# Where “and” joins values, the source holds several entries; their conditions need not be identical. Equal values may be shown once. Calls of active or inactive are those of the source.
# Assays:
# [1] = biological target: T1, Corticotropin-releasing factor receptor 2/Corticotropin-releasing factor-binding protein (Homo sapiens, UniProt P24387+Q13324); assay: activators of CRF receptor 2 with binding protein – uHTS hits, confirmation (AID 602473); type: functional; conditions: read-out: EC50_Mean
# T1 sequence (Q13324 whole entry): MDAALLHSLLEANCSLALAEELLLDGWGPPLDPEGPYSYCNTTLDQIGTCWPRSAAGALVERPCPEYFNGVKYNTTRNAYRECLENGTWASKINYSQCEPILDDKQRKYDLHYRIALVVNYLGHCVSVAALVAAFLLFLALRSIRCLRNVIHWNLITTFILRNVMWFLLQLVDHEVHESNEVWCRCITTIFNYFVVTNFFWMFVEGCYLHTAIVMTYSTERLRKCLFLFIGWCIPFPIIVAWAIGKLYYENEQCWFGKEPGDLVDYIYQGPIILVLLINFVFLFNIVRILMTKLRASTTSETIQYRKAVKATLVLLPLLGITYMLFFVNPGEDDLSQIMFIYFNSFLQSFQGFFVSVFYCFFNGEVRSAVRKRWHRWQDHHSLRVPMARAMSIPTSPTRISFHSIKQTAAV
# T1 sequence (P24387 whole entry): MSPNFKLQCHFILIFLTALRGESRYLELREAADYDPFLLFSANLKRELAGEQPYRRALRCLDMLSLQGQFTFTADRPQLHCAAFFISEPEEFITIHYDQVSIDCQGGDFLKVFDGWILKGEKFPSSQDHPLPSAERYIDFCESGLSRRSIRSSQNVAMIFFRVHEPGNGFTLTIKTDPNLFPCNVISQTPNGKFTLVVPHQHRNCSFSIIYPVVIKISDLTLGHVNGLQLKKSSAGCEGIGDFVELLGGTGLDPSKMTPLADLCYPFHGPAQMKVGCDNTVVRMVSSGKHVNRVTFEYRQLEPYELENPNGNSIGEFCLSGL
# [2] = biological target: T1, Corticotropin-releasing factor receptor 2/Corticotropin-releasing factor-binding protein; assay: Dose Response confirmation of uHTS hits for small molecule antagonists of the CRF-binding protein and CRF-R2 receptor complex.; type: functional; conditions: read-out: IC50_Mean
# [3] = biological target: FAD-linked sulfhydryl oxidase ALR (Homo sapiens, UniProt P55789); assay: inhibitors of human ALR sulfhydryl oxidase, dose response, biochemical, H2O2 detection, luminescence, cherry-pick (AID 493248)
# [4] = biological target: Cytochrome P450 3A4 (Homo sapiens, UniProt P08684); conditions: Potency;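 further: confirmatory qHTS run detecting inhibitors and substrates of CYP3A4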
# [5] = biological target: Induced myeloid leukemia cell differentiation protein Mcl-1 (Homo sapiens, UniProt Q07820); type: functional
# [6] = inhibitors of intracellular T. cruzi replication, confirmation, NIH3T3 host cells, beta-gal luminescence (AID 2044); type: functional, cell-based;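 further: intracellular parasites grown in NIH/3T3 mouse fibroblasts as host cells; luminescent beta-galactosidase reporter signal from transgenic T. cruzi replicating inside host cells; inhibitors lower the luminescence signal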
# [7] = cytotoxicity toward NIH3T3 fibroblasts, dose response, counter-screen, cell-based, ATP luminescence, mouse fibroblasts (AID 2010); type: functional;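 further: cells exposed to compound for about 90 hours before reading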
# [8] = system: P388; assay: cells; type: functional; conditions: Mus musculus
# [9] = system: P388/ADR; assay: cells; type: functional; conditions: Mus musculus
# [10] = system: SN12K1; assay: cells; type: functional; conditions: Homo sapiens
# [11] = ZM109 Env clade C HIV-1 fusion inhibitors, dose response, HeLa effector, CEM target cells, luciferase, cherry-pick (AID 652058); type: functional, cell-based
# [12] = biological target: T2, Replicative DNA helicase DnaB (Mycobacterium tuberculosis, UniProt P9WMR3); assay: DnaB intein splicing inhibitors, dose response, biochemical, cell-free fluorescence (AID 449749); type: functional
# T2 sequence (P9WMR3 whole entry): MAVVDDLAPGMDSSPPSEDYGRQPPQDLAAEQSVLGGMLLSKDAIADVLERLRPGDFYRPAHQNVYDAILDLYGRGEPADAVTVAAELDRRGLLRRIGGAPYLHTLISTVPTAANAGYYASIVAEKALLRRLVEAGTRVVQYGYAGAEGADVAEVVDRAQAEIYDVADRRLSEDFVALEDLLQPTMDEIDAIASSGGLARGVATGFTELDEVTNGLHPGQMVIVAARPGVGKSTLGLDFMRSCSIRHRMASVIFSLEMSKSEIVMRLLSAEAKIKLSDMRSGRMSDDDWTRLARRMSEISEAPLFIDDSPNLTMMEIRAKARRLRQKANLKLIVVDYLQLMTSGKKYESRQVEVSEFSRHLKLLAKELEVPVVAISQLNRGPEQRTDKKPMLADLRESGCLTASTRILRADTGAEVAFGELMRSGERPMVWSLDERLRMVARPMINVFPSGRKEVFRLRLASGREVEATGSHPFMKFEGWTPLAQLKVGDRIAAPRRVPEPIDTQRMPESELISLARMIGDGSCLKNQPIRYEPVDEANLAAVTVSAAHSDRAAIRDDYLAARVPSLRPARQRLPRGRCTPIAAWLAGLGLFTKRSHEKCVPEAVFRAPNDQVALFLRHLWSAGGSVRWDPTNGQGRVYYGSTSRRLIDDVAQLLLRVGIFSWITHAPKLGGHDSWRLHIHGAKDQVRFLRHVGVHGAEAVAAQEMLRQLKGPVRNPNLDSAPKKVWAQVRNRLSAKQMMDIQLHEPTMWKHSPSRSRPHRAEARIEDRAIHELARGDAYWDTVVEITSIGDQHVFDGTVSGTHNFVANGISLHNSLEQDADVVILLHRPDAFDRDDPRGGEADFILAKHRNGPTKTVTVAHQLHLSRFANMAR
# [13] = biological target: T3, Protein RecA (Mycobacterium tuberculosis, UniProt P9WHJ3); assay: Fluorescence Cell-Free Homogeneous Dose Retest to Identify Inhibitors of RecA-Intein Splicing Activity. [Related pubchem assays (depositor defined):AID2097, AID2223, AID489010, AID492950]; type: functional
# T3 sequence (P9WHJ3 whole entry): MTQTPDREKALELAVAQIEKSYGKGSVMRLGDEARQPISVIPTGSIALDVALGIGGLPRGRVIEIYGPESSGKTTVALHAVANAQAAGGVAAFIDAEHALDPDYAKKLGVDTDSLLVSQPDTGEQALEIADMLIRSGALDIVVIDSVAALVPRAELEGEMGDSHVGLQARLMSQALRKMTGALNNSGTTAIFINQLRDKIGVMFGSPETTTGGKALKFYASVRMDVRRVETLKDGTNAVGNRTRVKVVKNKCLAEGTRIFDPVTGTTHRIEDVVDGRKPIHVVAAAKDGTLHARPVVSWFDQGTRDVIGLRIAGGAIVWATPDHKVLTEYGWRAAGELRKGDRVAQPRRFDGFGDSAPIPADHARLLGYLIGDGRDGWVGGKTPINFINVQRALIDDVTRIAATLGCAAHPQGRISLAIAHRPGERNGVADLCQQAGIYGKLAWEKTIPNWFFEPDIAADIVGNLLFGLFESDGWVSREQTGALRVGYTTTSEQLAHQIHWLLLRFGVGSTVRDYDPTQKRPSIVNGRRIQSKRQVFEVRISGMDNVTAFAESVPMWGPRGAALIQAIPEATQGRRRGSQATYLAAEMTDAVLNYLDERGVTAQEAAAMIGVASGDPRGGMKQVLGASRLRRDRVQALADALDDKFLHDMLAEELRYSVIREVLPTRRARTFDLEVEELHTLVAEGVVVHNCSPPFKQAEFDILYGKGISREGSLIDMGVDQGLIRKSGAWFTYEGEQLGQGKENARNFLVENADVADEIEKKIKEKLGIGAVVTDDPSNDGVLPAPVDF
# [14] = biological target: T4, Leucine aminopeptidase (Plasmodium falciparum 3D7, UniProt Q8IL11); assay: P. falciparum M17LAP inhibitors, primary screen, biochemical, fluorogenic H-Leu-NHMec substrate, 1536-well (AID 1619); type: functional
# T4 sequence (Q8IL11 whole entry): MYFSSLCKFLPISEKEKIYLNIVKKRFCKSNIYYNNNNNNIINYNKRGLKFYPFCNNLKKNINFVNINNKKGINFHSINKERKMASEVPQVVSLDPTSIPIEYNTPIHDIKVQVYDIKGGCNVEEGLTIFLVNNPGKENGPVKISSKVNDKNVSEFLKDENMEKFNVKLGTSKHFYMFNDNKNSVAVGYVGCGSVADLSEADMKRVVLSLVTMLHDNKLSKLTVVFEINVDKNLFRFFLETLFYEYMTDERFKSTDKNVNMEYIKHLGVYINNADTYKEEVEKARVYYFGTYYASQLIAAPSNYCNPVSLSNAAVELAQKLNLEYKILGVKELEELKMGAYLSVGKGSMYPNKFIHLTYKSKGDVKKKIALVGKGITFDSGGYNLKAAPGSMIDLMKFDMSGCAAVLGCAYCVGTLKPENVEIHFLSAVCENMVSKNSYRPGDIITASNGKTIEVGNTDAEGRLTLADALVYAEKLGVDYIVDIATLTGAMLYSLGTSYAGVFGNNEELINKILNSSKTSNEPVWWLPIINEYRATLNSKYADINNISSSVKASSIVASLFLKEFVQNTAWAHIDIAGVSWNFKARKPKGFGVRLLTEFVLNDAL
# [15] = biological target: Fatty acid synthase (Homo sapiens, UniProt P49327); assay: FAS thioesterase domain inhibitors, dose response, biochemical, kinetic fluorescence intensity (AID 624326); type: functional;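 further: rate of fluorescence rise from hydrolysis of a fluorogenic O-methyl fluorescein ester substrate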
# Fatty acid synthase, sequence (P49327 whole entry, the tested form may be a part): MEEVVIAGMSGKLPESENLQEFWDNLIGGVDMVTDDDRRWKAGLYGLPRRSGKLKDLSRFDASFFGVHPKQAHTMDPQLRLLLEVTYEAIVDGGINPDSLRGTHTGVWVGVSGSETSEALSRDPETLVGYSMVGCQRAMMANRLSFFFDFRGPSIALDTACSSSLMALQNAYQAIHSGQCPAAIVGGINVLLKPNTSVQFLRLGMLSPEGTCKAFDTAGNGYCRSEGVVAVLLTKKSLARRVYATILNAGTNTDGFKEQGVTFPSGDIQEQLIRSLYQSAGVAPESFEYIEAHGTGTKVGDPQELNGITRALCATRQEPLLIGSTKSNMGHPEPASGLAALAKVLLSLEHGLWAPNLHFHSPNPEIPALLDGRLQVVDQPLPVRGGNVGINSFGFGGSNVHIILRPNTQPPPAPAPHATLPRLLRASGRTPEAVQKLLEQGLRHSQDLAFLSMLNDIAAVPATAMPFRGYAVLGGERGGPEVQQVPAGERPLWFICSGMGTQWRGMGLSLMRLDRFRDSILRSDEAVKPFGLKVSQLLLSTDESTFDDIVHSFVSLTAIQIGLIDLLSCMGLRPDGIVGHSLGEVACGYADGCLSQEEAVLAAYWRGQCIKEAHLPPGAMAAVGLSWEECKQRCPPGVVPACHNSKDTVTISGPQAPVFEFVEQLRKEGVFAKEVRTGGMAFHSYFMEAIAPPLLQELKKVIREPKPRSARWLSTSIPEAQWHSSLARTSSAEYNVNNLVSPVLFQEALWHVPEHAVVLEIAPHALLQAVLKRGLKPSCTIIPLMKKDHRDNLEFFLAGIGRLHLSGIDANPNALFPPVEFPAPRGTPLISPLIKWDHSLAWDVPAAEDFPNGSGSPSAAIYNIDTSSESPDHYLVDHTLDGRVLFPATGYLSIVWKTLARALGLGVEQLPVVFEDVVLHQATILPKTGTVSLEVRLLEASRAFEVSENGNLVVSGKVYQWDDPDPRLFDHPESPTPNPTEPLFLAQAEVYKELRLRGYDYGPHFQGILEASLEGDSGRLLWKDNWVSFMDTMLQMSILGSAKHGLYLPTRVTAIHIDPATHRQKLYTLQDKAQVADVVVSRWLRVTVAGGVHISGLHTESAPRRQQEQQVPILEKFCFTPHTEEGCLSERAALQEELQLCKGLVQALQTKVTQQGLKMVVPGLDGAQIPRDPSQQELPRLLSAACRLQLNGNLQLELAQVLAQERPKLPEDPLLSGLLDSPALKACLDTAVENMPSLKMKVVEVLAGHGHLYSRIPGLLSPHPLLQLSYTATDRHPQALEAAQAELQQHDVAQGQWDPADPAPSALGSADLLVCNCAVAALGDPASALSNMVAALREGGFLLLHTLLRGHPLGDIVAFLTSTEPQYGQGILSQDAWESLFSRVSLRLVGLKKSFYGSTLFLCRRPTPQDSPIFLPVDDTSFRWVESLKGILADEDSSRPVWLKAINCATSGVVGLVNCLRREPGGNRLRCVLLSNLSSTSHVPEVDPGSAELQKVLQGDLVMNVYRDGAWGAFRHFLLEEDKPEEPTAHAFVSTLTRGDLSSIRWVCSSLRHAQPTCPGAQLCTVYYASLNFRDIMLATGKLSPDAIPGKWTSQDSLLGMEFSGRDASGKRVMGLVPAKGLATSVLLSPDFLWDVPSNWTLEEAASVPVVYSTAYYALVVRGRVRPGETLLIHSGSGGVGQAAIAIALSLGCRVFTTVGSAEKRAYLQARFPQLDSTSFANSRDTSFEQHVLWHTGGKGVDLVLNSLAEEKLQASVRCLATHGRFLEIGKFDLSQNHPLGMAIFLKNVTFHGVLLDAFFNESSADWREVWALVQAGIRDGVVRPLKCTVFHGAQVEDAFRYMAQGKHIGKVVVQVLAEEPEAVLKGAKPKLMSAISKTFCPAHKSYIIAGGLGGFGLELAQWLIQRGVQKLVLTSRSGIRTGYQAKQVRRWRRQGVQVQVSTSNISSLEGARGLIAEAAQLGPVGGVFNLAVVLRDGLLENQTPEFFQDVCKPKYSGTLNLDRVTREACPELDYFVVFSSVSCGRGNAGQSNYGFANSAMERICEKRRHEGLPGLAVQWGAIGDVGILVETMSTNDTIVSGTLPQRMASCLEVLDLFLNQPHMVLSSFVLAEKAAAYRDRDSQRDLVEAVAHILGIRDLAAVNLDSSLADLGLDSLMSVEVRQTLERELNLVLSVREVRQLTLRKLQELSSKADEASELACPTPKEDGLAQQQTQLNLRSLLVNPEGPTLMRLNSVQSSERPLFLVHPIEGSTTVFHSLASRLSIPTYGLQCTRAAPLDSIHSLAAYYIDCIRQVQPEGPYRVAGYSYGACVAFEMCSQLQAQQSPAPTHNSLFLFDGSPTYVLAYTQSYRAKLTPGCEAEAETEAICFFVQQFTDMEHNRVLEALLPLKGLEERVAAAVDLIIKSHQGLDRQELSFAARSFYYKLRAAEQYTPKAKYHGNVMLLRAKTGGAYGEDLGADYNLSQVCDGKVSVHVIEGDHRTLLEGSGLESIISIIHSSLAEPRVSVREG
# FAD-linked sulfhydryl oxidase ALR, sequence (P55789 whole entry): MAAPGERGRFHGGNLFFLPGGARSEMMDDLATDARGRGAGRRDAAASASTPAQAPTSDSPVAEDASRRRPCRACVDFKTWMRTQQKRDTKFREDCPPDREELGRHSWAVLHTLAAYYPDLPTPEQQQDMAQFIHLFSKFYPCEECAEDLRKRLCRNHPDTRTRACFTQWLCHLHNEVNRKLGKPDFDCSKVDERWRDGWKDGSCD
# Cytochrome P450 3A4, sequence (P08684 whole entry): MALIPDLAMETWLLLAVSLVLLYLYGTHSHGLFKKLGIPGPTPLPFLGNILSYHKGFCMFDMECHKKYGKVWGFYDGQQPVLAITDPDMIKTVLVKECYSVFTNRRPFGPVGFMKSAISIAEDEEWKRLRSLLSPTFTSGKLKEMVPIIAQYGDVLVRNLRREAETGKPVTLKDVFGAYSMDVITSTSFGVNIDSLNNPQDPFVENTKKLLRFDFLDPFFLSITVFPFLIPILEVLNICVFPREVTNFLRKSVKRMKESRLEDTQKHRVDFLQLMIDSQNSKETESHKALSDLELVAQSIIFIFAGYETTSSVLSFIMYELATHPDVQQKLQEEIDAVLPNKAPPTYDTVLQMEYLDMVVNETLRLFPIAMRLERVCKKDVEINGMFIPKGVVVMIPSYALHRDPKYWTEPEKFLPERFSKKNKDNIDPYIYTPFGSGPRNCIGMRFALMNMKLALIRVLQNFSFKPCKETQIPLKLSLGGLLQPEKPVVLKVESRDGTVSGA
# Induced myeloid leukemia cell differentiation protein Mcl-1, sequence (Q07820 whole entry): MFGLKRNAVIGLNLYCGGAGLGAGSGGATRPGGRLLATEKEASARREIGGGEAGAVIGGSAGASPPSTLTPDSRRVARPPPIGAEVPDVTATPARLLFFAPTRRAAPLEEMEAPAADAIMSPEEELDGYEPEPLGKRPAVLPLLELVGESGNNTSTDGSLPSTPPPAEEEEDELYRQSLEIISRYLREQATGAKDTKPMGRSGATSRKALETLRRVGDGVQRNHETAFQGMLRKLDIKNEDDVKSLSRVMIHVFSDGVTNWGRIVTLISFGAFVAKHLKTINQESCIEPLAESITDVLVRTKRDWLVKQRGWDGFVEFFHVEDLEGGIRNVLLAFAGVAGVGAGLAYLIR
smiles,measurement,setting,value
CN(C)c1ccc(C(=O)NNC(=O)c2ccc(Cl)cc2)cc1,EC50,[1],> 53 µM (inactive)
same,IC50,[2],> 47.1 µM (inactive)
Cc1ccc(N2C(=O)CC(NNC(=O)c3cccc(S(=O)(=O)N4CCCC4)c3)C2=O)cc1 (stereo unspecified),AC50,[3],9.56 µM (active)
C=CCn1c(SCc2ccc(C(=O)O)cc2)nc2sc(C)c(C)c2c1=O,AC50,[3],4.74 µM (active)
OCC1OC(C#Cc2ccccc2)C=CC1O (stereo unspecified),AC50,[4],3.16 µM (inconclusive) and 6.31 µM (inconclusive) (2×)
Cn1c(N)c(C(=O)COC(=O)c2cc(C3CC3)nc3ccccc23)c(=O)n(C)c1=O,AC50,[4],39.8 µM (inconclusive)
COC(=O)C1=C(C(=O)c2ccccc2)C(c2ccc(O)c(OC)c2)n2nnnc2N1 (stereo unspecified),EC50,[1],> 53 µM (inactive)
same,IC50,[2],> 47.1 µM (inactive)
COc1ccc2c(C)cc(SCn3nnc4ccccc4c3=O)nc2c1,EC50,[1],> 53 µM (inactive)
same,IC50,[2],> 47.1 µM (inactive)
Cc1ccc(C(=O)COC(=O)CNC(=O)c2ccc(N3C(=O)c4ccccc4C3=O)cc2)cc1C,IC50,[5],2.13 µM (not active)
Fc1ccc(OCCCCCn2ccnc2)cc1,EC50,[1],> 53 µM (inactive)
same,EC50,[6],1.67 µM (active)
same,EC50,[7],> 60 µM (not active)
same,IC50,[2],> 47.1 µM (inactive)
Cn1ccnc1SCc1cn2ccccc2n1,EC50,[1],> 53 µM (inactive)
same,IC50,[2],> 47.1 µM (inactive)
CC1=NN(C(=O)c2ccccc2)C(=O)C1/N=N/c1ccccc1C(=O)O (stereo unspecified),GI50,[8],9.51 µM (inactive)
same,GI50,[9],5.55 µM (inactive)
same,GI50,[10],3.24 µM (inactive)
COc1cccc2c1C(=O)c1c(O)c3c(c(O)c1C2=O)C[C@@](O)(C(=O)CO)C[C@@H]3OC1CC(N2CCOCC2C#N)C(O)C(C)O1 (stereo partly specified),GI50,[8],2.9e-06 µM (active)
same,GI50,[10],1.13e-05 µM (active)
C[C@@H]1CN([C@H](C)CO)C(=O)c2cccc(NC(=O)c3cnccn3)c2O[C@H]1CN(C)Cc1ccccc1,AC50,[11],36.6 µM (active)
O=C(/C=C/c1ccccc1)c1ccc(NC2=NCCCS2)cc1,IC50,[5],8.3 µM (active)
Cc1c2cc[n+]([O-])cc2c(C)c2c1[nH]c1ccccc12,GI50,[8],0.753 µM (active)
same,GI50,[9],4.45 µM (inactive)
same,GI50,[10],3.38 µM (inactive)
CC(=O)N1CC=CC1(C)C(=O)NCC1CC1 (stereo unspecified),AC50,[4],31.6 µM (inconclusive)
O=S(=O)(Nc1ccccc1O)c1ccc2[nH]c(O)nc2c1,AC50,[3],2.1 µM (active)
Cc1ccc(-c2[nH]nc3c2C(c2ccsc2)C(C#N)=C(N)O3)cc1 (stereo unspecified),AC50,[12],3.26 µM (active)
same,EC50,[13],1.2 µM (active)
same,IC50,[14],11.3 µM (active)
Cc1c(-c2cc3n(n2)C(c2cccs2)C(C#N)=C(c2ccccc2)N3)c(=O)n(-c2ccccc2)n1C (stereo unspecified),GI50,[8],42.1 µM (inactive)
same,GI50,[9],76.4 µM (inactive)
same,GI50,[10],86.5 µM (inactive)
OCC1OC(n2cnc3c2NC=NC[C@H]3O)CC1O (stereo partly specified),GI50,[8],366 µM (inactive)
same,GI50,[9],291 µM (inactive)
same,GI50,[10],405 µM (inactive)
Cc1c2cc[n+](C)cc2c(COC2OC(CO)C(O)C2O)c2c3ccccc3n(C)c12 (stereo unspecified),GI50,[8],2.69 µM (inactive)
same,GI50,[9],> 100 µM (inactive)
same,GI50,[10],58.2 µM (inactive)
O=C(CSc1nnc(O)nc1O)N/N=C/c1ccccc1,IC50,[14],21.1 µM (active)
COc1ccc(OC)c(S(=O)(=O)n2nnc3cc(Cl)ccc32)c1,IC50,[14],103 µM (active)
Cc1c(C)c(C)c(C(=O)CCc2cccc(NC(=O)CCC(=O)O)c2)c(C)c1C,AC50,[3],1.72 µM (active)
CC(=O)OC[C@@]1(O)C[C@]23CCC4c5ccoc5CC[C@@]4(C)C2CCC1C3 (stereo partly specified),AC50,[4],31.6 µM (inconclusive)
CCCNC(=O)c1cc2c3ccccc3n(C)c2s1,AC50,[3],0.137 µM (active)
CCCn1c(-c2ccc(F)cc2)nc2c(NCCCN(CC)CC)nc(C)nc21,AC50,[4],20 µM (inconclusive)
CNC(=O)OCc1nc(SC)n(C)c1CO,GI50,[8],> 100 µM (inactive)
same,GI50,[9],> 100 µM (inactive)
same,GI50,[10],> 100 µM (inactive)
NC(=O)/N=N/C(N)=O [E927A],AC50,[4],31.6 µM (inconclusive)
CN(C)CCNC(=O)c1cccc2c1Nc1ccccc1S2,GI50,[8],2.25 µM (inactive)
same,GI50,[9],2.84 µM (inactive)
same,GI50,[10],8.18 µM (inactive)
CN(C)S(=O)(=O)c1ccc(-c2csc(-c3cccnc3)n2)cc1,IC50,[15],3.34 µM (active)
O=C(O)C1CC=CCC1C(=O)Nc1ccccc1 (stereo unspecified),IC50,[14],29 µM (active)
